Molecules are shown by their SMILES.

For 57 molecules, Activity results are on record in ChEMBL document CHEMBL5252631, “A pharmacophore-based approach to demonstrating the scope of alcohol dehydrogenases” (Bioorg Med Chem, 2023).

Assay [1] can be described thus: Substrate activity at ADH101 (unknown origin) assessed as specific enzyme activity using NADH as cofactor at 2.5 to 10 mM measured for 30 mins in presence of Tris HCL buffer by UV-Vis spectroscopy analysis. The settings on record: dose 2.5-10 mM.
The nature of assay [2]: Substrate activity at ADH105 (unknown origin) assessed as specific enzyme activity using NADH as cofactor at 2.5 to 10 mM measured for 30 mins in presence of Tris HCL buffer by UV-Vis spectroscopy analysis. Conditions: Homo sapiens, dose 2.5-10 mM.
The nature of assay [3]: Substrate activity at ADH105 (unknown origin) assessed as specific enzyme activity using NADH as cofactor at 2.5 to 10 mM measured for 30 mins in presence of 20% hexane-Tris HCL buffer by UV-Vis spectroscopy analysis. Conditions: dose 2.5-10 mM.
Assay [4] can be described thus: Substrate activity at ADH101 (unknown origin) assessed as specific enzyme activity using NADH as cofactor at 2.5 to 10 mM measured for 30 mins in presence of 20% hexane-Tris HCL buffer by UV-Vis spectroscopy analysis. Conditions: Homo sapiens, dose 2.5-10 mM.
A short description of assay [5]: Substrate activity at ADH19 (unknown origin) assessed as specific enzyme activity using NADPH as cofactor at 2.5 to 10 mM measured for 30 mins in presence of Tris HCL buffer by UV-Vis spectroscopy analysis. Conditions: Homo sapiens, dose 2.5-10 mM.
Assay [6] in a line: Substrate activity at ADH20 (unknown origin) assessed as specific enzyme activity using NADPH as cofactor at 2.5 to 10 mM measured for 30 mins in presence of Tris HCL buffer by UV-Vis spectroscopy analysis. Conditions: Homo sapiens, dose 2.5-10 mM.
Assay [7] is described as follows: Substrate activity at ADH61 (unknown origin) assessed as specific enzyme activity using NADPH as cofactor at 2.5 to 10 mM measured for 30 mins in presence of Tris HCL buffer by UV-Vis spectroscopy analysis. The settings on record: Homo sapiens, dose 2.5-10 mM.
The nature of assay [8]: Substrate activity at ADH150 (unknown origin) assessed as specific enzyme activity using NADPH as cofactor at 2.5 to 10 mM measured for 30 mins in presence of Tris HCL buffer by UV-Vis spectroscopy analysis. Conditions: Homo sapiens, dose 2.5-10 mM.

As for `COc1cc(C(C)=O)cc(OC)c1OC`, the Activity in assay [1] came to 11.7 nmol/min/mg; in assay [2], 154 nmol/min/mg; in assay [3], 89.9 nmol/min/mg.

Take `CCc1ccc(OC)c(C(C)=O)c1`: the Activity in assay [1] is 49.8 nmol/min/mg; in assay [2], 14.1 nmol/min/mg; in assay [4], 52.9 nmol/min/mg; in assay [3] it was 64 nmol/min/mg.

Take `CC(=O)c1ccc(I)cc1`: the Activity in assay [4] was found to be 51.3 nmol/min/mg; in assay [3], 117 nmol/min/mg.

For `CCCCCCCCC(C)=O`, the Activity in assay [1] stood at 39.5 nmol/min/mg; in assay [2], 8.95 nmol/min/mg; in assay [4] it was 25.7 nmol/min/mg; in assay [3] it was 37.1 nmol/min/mg.

`CC(=O)c1ccc(N)cc1`: the Activity was determined as 5.03 nmol/min/mg in assay [1], 21.3 nmol/min/mg in assay [2], 43.9 nmol/min/mg in assay [4] and 80.4 nmol/min/mg in assay [3].

Take `CC(=O)c1ccc(C[C@H](N)C(=O)O)cc1`: the Activity in assay [5] worked out at 7.76 nmol/min/mg; in assay [6], 55.7 nmol/min/mg; in assay [7] it was 123 nmol/min/mg; in assay [8], 33.7 nmol/min/mg; in assay [4], 10.2 nmol/min/mg; in assay [3], 62.2 nmol/min/mg.

Turning to `CC(=O)c1cc(F)ccc1O`, the Activity in assay [4] came to 42.8 nmol/min/mg.

Take `CC(=O)c1ccc(Br)c(F)c1`: the Activity was determined as 46.3 nmol/min/mg in assay [1], 103 nmol/min/mg in assay [4] and 242 nmol/min/mg in assay [3].

As to `O=C(CCl)c1ccc(F)c(F)c1`, the Activity in assay [1] worked out at 83.1 nmol/min/mg; in assay [2], 131 nmol/min/mg; in assay [4], 87.1 nmol/min/mg; in assay [3], 112 nmol/min/mg.

With `CC(=O)c1cc[nH]n1`, the Activity in assay [5] amounted to 10.3 nmol/min/mg; in assay [6], 24.1 nmol/min/mg; in assay [7], 10.7 nmol/min/mg; in assay [8] it was 11.8 nmol/min/mg; in assay [4], 5.6 nmol/min/mg; in assay [3], 20.7 nmol/min/mg.

Consider `CC(=O)C1CCCCC1`, for which the Activity in assay [1] is 167 nmol/min/mg; in assay [2], 233 nmol/min/mg; in assay [4], 52.3 nmol/min/mg; in assay [3] it was 112 nmol/min/mg.

As for `CC(=O)c1nccn1C`, the Activity in assay [4] is 14.7 nmol/min/mg; in assay [3], 20.7 nmol/min/mg.

Turning to `COc1ccc(C(C)=O)cc1OC`, the Activity is 59.8 nmol/min/mg in assay [4] and 220 nmol/min/mg in assay [3].

On to `COc1ccc2[nH]cc(CCNC(C)=O)c2c1`, for which, in assay [3], the Activity was determined as 21.7 nmol/min/mg.

As to `CC(C)(C)NCC(=O)c1cc(Cl)c(N)c(Cl)c1`, the Activity was 10.4 nmol/min/mg in assay [5]; 18.8 nmol/min/mg in assay [6]; 29 nmol/min/mg in assay [7]; 6.55 nmol/min/mg in assay [8]; 34.6 nmol/min/mg in assay [3].

For `CC(=O)c1cccc(Br)c1`, the Activity in assay [1] worked out at 19.9 nmol/min/mg; in assay [2], 1.9 nmol/min/mg; in assay [4], 12.2 nmol/min/mg; in assay [3], 142 nmol/min/mg.

With `CC(=O)c1cccc(C#N)c1`, the figures for the Activity in assay [4] and in assay [3] were 57.4 nmol/min/mg and 173 nmol/min/mg, respectively.

`CC(=O)c1ccc(Br)nc1`: the figures for the Activity in assay [4] and in assay [3] were 33.2 nmol/min/mg and 269 nmol/min/mg, respectively.

With `O=C(CBr)c1ccccc1`, the Activity in assay [1] was 44.6 nmol/min/mg; in assay [2], 18.7 nmol/min/mg; in assay [4] it was 89.2 nmol/min/mg; in assay [3], 337 nmol/min/mg.

Take `CC(=O)c1ccc(O)cc1`: the Activity worked out at 39.5 nmol/min/mg in assay [2], 12.8 nmol/min/mg in assay [5], 12.7 nmol/min/mg in assay [7] and 31.5 nmol/min/mg in assay [3].

`CC(=O)c1cc(C(F)(F)F)cc(C(F)(F)F)c1`: the Activity in assay [1] was found to be 4.51 nmol/min/mg; in assay [2], 29.6 nmol/min/mg; in assay [4], 17.4 nmol/min/mg; in assay [3], 57.3 nmol/min/mg.

Turning to `CC(=O)c1cnccn1`, the Activity in assay [4] was found to be 53.2 nmol/min/mg; in assay [3], 185 nmol/min/mg.

With `CC(=O)c1ccc(NS(C)(=O)=O)cc1`, the Activity in assay [3] came out at 203 nmol/min/mg.

As for `CC(=O)c1ccccc1O`, the values for the Activity in assay [1] and in assay [2] were 11.3 nmol/min/mg and 23.1 nmol/min/mg, respectively.

With `CC(=O)Cc1ccccc1`, the Activity in assay [1] turned out to be 5.98 nmol/min/mg; in assay [2] it was 274 nmol/min/mg; in assay [4] it was 22.2 nmol/min/mg; in assay [3], 239 nmol/min/mg.

Turning to `CC(=O)c1ccc(C(F)(F)F)nc1`, the Activity stood at 80.9 nmol/min/mg in assay [4] and 210 nmol/min/mg in assay [3].

`CC(=O)/C=C/c1ccccc1`: the Activity in assay [1] was found to be 60.7 nmol/min/mg; in assay [2], 6.97 nmol/min/mg; in assay [4], 67.2 nmol/min/mg; in assay [3] it was 62.1 nmol/min/mg.

For `CC(=O)c1ccc2c(c1)OCO2`, the Activity in assay [1] stood at 17.7 nmol/min/mg; in assay [2] it was 70.1 nmol/min/mg; in assay [4], 34.2 nmol/min/mg; in assay [3], 189 nmol/min/mg.

With `CC(=O)c1ccc([N+](=O)[O-])cc1`, the figures for the Activity in assay [1], in assay [4] and in assay [3] were 99.9 nmol/min/mg, 130 nmol/min/mg and 593 nmol/min/mg, respectively.

Take `CC(=O)c1ccc(F)cc1`: the Activity in assay [1] is 26.4 nmol/min/mg; in assay [2], 86.4 nmol/min/mg; in assay [4] it was 22.9 nmol/min/mg; in assay [3], 122 nmol/min/mg.

As for `CC(=O)c1cccc(O)c1`, the Activity in assay [1] is 4.76 nmol/min/mg; in assay [2], 82.4 nmol/min/mg; in assay [4] it was 14.8 nmol/min/mg; in assay [3], 157 nmol/min/mg.

Regarding `COc1cc(OC)cc(C(C)=O)c1`, the Activity in assay [4] is 59.2 nmol/min/mg; in assay [3], 363 nmol/min/mg.

Regarding `CC(=O)c1ccc(Cl)nc1`, the Activity in assay [1] is 32.2 nmol/min/mg; in assay [2], 371 nmol/min/mg; in assay [4], 62.5 nmol/min/mg; in assay [3], 92 nmol/min/mg.

On to `O=C(c1ccccc1)C(F)(F)F`, for which the Activity came to 9.22 nmol/min/mg in assay [1], 19.1 nmol/min/mg in assay [2], 46.2 nmol/min/mg in assay [4] and 29.4 nmol/min/mg in assay [3].

In the case of `O=c1[nH]c(=O)c2nc[nH]c2[nH]1`, the Activity in assay [1] is 319 nmol/min/mg; in assay [2] it was 9.28 nmol/min/mg; in assay [3], 15.9 nmol/min/mg.

For `COc1ccc(C(C)=O)cc1`, the Activity in assay [4] came to 24.6 nmol/min/mg; in assay [3] it was 221 nmol/min/mg.

`CC(=O)c1cncnc1`: the Activity stood at 45.2 nmol/min/mg in assay [4] and 50.5 nmol/min/mg in assay [3].

For `CC(=O)c1ccc(Br)cc1O`, the Activity came out at 112 nmol/min/mg in assay [1], 10 nmol/min/mg in assay [4] and 27.2 nmol/min/mg in assay [3].

Regarding `CC(=O)c1ccccn1`, the Activity stood at 22.2 nmol/min/mg in assay [1], 70.4 nmol/min/mg in assay [2], 35.5 nmol/min/mg in assay [4] and 60.3 nmol/min/mg in assay [3].

In the case of `CC(=O)c1ccc(B2OC(C)(C)C(C)(C)O2)cc1`, the Activity was found to be 465 nmol/min/mg in assay [4] and 87 nmol/min/mg in assay [3].

For `CC(=O)CCc1ccccc1`, the Activity in assay [1] was 109 nmol/min/mg; in assay [4] it was 95.7 nmol/min/mg; in assay [3], 364 nmol/min/mg.

In the case of `CC(=O)C1CC1`, the Activity was 82.8 nmol/min/mg in assay [4] and 98.2 nmol/min/mg in assay [3].

In the case of `CC(=O)c1ccccc1`, the Activity amounted to 43.1 nmol/min/mg in assay [1], 142 nmol/min/mg in assay [2], 54.1 nmol/min/mg in assay [4] and 99.1 nmol/min/mg in assay [3].

As for `COc1ccccc1C(C)=O`, the Activity in assay [1] was 2.46 nmol/min/mg; in assay [2], 13.4 nmol/min/mg; in assay [3] it was 83 nmol/min/mg.

For `CNCC(=O)c1cccc(O)c1`, the Activity turned out to be 20.8 nmol/min/mg in assay [2]; 6.78 nmol/min/mg in assay [5]; 67.2 nmol/min/mg in assay [6]; 38.6 nmol/min/mg in assay [8]; 12.4 nmol/min/mg in assay [4]; 17.4 nmol/min/mg in assay [3].

Regarding `O=C(c1ccccc1)c1ccccc1`, the Activity in assay [1] worked out at 35.7 nmol/min/mg; in assay [2], 12.8 nmol/min/mg; in assay [6], 41.1 nmol/min/mg; in assay [8], 69.9 nmol/min/mg; in assay [4], 73.9 nmol/min/mg; in assay [3], 14.3 nmol/min/mg.

`CC(=O)C1CCCC1`: the Activity is 123 nmol/min/mg in assay [4] and 218 nmol/min/mg in assay [3].

Regarding `CC(=O)c1ccc(Br)cc1F`, the Activity in assay [1] was 15.9 nmol/min/mg; in assay [4], 57.7 nmol/min/mg; in assay [3], 366 nmol/min/mg.

As to `CC(=O)c1ccc2ccccc2c1`, the figures for the Activity in assay [1], in assay [4] and in assay [3] were 7.68 nmol/min/mg, 37 nmol/min/mg and 54 nmol/min/mg, respectively.

For `CC(=O)c1cnc2ccccc2c1`, the Activity was 13.7 nmol/min/mg in assay [4] and 229 nmol/min/mg in assay [3].

In the case of `CC(=O)c1ccc(Br)cc1`, the Activity was found to be 38.1 nmol/min/mg in assay [1], 56.1 nmol/min/mg in assay [2], 73.1 nmol/min/mg in assay [4] and 158 nmol/min/mg in assay [3].

`O=C1CN2CCC1CC2`: the Activity in assay [2] was 13 nmol/min/mg; in assay [4], 85.3 nmol/min/mg; in assay [3] it was 23.4 nmol/min/mg.

On to `CC(=O)c1ccc(F)nc1`, for which the Activity is 24.7 nmol/min/mg in assay [1], 182 nmol/min/mg in assay [2], 51 nmol/min/mg in assay [4] and 137 nmol/min/mg in assay [3].

Consider `CC(=O)c1cccnc1`, for which the Activity turned out to be 9.45 nmol/min/mg in assay [1], 121 nmol/min/mg in assay [2], 34 nmol/min/mg in assay [4] and 163 nmol/min/mg in assay [3].

As for `COc1cccc(C(C)=O)c1`, the figures for the Activity in assay [4] and in assay [3] were 13.8 nmol/min/mg and 397 nmol/min/mg, respectively.

Regarding `CC(=O)c1ccccc1Br`, the Activity is 75.1 nmol/min/mg in assay [1], 6.37 nmol/min/mg in assay [2], 38 nmol/min/mg in assay [4] and 39.5 nmol/min/mg in assay [3].

Consider `CCOc1ccc(C(C)=O)cc1`, for which the Activity is 4.37 nmol/min/mg in assay [1], 81.1 nmol/min/mg in assay [2], 19.9 nmol/min/mg in assay [4] and 196 nmol/min/mg in assay [3].
